A short description of data set [1]: Whole Blood Stability Assay (mouse whole blood). Format: in vitro ADME. Particulars: CD-1 mouse blood, EDTA-K2, final conc. 2 μM, 37° C., 0-120 min; for half-life at 2 μM: male, fresh whole blood, read-out: Mouse Whole Blood Stability t1/2. The gist of the method:
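Compound at 2 μM final was incubated at 37 °C in fresh EDTA-K2 blood from male CD-1 mice. Samples at 0, 10, 30, 60 and 120 min were protein-precipitated with acetonitrile and analysed by LC-MS/MS. % remaining was derived from analyte/internal-standard peak area ratios.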

A short description of data set [2]: Plasma Stability Assay (human plasma). The format is in vitro ADME. To be noted: both sexes; pooled human plasma, heparin, final conc. 2 μM, 37° C., 0-120 min; read-out: Human Plasma Stability t1/2. Put shortly:
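Compound at 2 μM final in pooled heparinised plasma (3 male, 3 female), incubated at 37° C with sampling at 0, 10, 30, 60 and 120 min. Acetonitrile stop, LC-MS/MS; % remaining from analyte/internal-standard peak area ratio relative to T0.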

SMILES strings stand for the structures.

For `CCc1c(F)ccc2cc(OC(=O)C3CCCC3)cc(N3CCc4c(nc(OC[C@@]56CCCN5C[C@H](F)C6)nc4N4CCC[C@]5(C4)NC(=O)NC5=O)C3)c12` [Example 42, 4-(4-((R)-2,4-dioxo-1,3,7-triazaspiro[4.5]decan-7-yl)-2-(((2R,7aS)-2-fluorotetrahydro-1H-pyrrolizin-7a(5H)-yl)methoxy)-5,8-dihydropyrido[3,4-d]pyrimidin-7(6H)-yl)-5-ethyl-6-fluoronaphthalen-2-yl cyclopentanecarboxylate], the “Mouse Whole Blood Stability t1/2” value in data set [1] is 1 min. The half-life at 2 μM in data set [2] is 1.32 h.
With `CCc1c(F)ccc2cc(OC(=O)N3CCCC3)cc(N3CCc4c(nc(OC[C@@]56CCCN5C[C@H](F)C6)nc4N4CCC[C@]5(C4)NC(=O)NC5=O)C3)c12` [Example 43, 4-(4-((R)-2,4-dioxo-1,3,7-triazaspiro[4.5]decan-7-yl)-2-(((2R,7aS)-2-fluorotetrahydro-1H-pyrrolizin-7a(5H)-yl)methoxy)-5,8-dihydropyrido[3,4-d]pyrimidin-7(6H)-yl)-5-ethyl-6-fluoronaphthalen-2-yl pyrrolidine-1-carboxylate], the half-life at 2 μM in data set [1] and in data set [2] was more than 4.82 h each time.
Turning to `CCCCCC(=O)Oc1cc(N2CCc3c(nc(OC[C@@]45CCCN4C[C@H](F)C5)nc3N3CCC[C@]4(C3)NC(=O)NC4=O)C2)c2c(CC)c(F)ccc2c1` [Example 44, 4-(4-((R)-2,4-dioxo-1,3,7-triazaspiro[4.5]decan-7-yl)-2-(((2R,7aS)-2-fluorotetrahydro-1H-pyrrolizin-7a(5H)-yl)methoxy)-5,8-dihydropyrido[3,4-d]pyrimidin-7(6H)-yl)-5-ethyl-6-fluoronaphthalen-2-yl hexanoate], the “Mouse Whole Blood Stability t1/2” value in data set [1] came out at 1 min. In addition, in data set [2], the half-life at 2 μM came to 2.37 h.
Take `CCc1c(F)ccc2cc(OC(=O)N(CC)CC)cc(N3CCc4c(nc(OC[C@@]56CCCN5C[C@H](F)C6)nc4N4CCC[C@]5(C4)NC(=O)NC5=O)C3)c12` [Example 45, 4-(4-((R)-2,4-dioxo-1,3,7-triazaspiro[4.5]decan-7-yl)-2-(((2R,7aS)-2-fluorotetrahydro-1H-pyrrolizin-7a(5H)-yl)methoxy)-5,8-dihydropyrido[3,4-d]pyrimidin-7(6H)-yl)-5-ethyl-6-fluoronaphthalen-2-yl diethylcarbamate]: the half-life at 2 μM in data set [1] and in data set [2] was more than 4.82 h in each case.
For the molecule `CCc1c(F)ccc2cc(OC(=O)OC(C)(C)C)cc(N3CCc4c(nc(OC[C@@]56CCCN5C[C@H](F)C6)nc4N4CCC[C@]5(C4)NC(=O)NC5=O)C3)c12` [Example 46, tert-butyl (4-(4-((R)-2,4-dioxo-1,3,7-triazaspiro[4.5]decan-7-yl)-2-(((2R,7aS)-2-fluorotetrahydro-1H-pyrrolizin-7a(5H)-yl)methoxy)-5,8-dihydropyrido[3,4-d]pyrimidin-7(6H)-yl)-5-ethyl-6-fluoronaphthalen-2-yl) carbonate], the half-life at 2 μM in data set [1] stood at 0.217 h; in data set [2], 1.93 h.
For `CCc1c(F)ccc2cc(OC(=O)C3CCCCC3)cc(N3CCc4c(nc(OC[C@@]56CCCN5C[C@H](F)C6)nc4N4CCC[C@]5(C4)NC(=O)NC5=O)C3)c12` [Example 47, 4-(4-((R)-2,4-dioxo-1,3,7-triazaspiro[4.5]decan-7-yl)-2-(((2R,7aS)-2-fluorotetrahydro-1H-pyrrolizin-7a(5H)-yl)methoxy)-5,8-dihydropyrido[3,4-d]pyrimidin-7(6H)-yl)-5-ethyl-6-fluoronaphthalen-2-yl cyclohexanecarboxylate], in that order: 0.0667 h and 3.72 h.
`CCc1c(F)ccc2cc(OC(=O)N3CCCCC3)cc(N3CCc4c(nc(OC[C@@]56CCCN5C[C@H](F)C6)nc4N4CCC[C@]5(C4)NC(=O)NC5=O)C3)c12` [Example 48, 4-(4-((R)-2,4-dioxo-1,3,7-triazaspiro[4.5]decan-7-yl)-2-(((2R,7aS)-2-fluorotetrahydro-1H-pyrrolizin-7a(5H)-yl)methoxy)-5,8-dihydropyrido[3,4-d]pyrimidin-7(6H)-yl)-5-ethyl-6-fluoronaphthalen-2-yl piperidine-1-carboxylate]: the half-life at 2 μM in data set [1] is 1.77 h; in data set [2] it was more than 4.82 h.
On to `CCCCCCCC(=O)Oc1cc(N2CCc3c(nc(OC[C@@]45CCCN4C[C@H](F)C5)nc3N3CCC[C@]4(C3)NC(=O)NC4=O)C2)c2c(CC)c(F)ccc2c1` [Example 50, 4-(4-((R)-2,4-dioxo-1,3,7-triazaspiro[4.5]decan-7-yl)-2-(((2R,7aS)-2-fluorotetrahydro-1H-pyrrolizin-7a(5H)-yl)methoxy)-5,8-dihydropyrido[3,4-d]pyrimidin-7(6H)-yl)-5-ethyl-6-fluoronaphthalen-2-yl octanoate], for which the half-life at 2 μM in data set [1] is 0.217 h; in data set [2] it was 3.92 h.
`CCCCCCCCCC(=O)Oc1cc(N2CCc3c(nc(OC[C@@]45CCCN4C[C@H](F)C5)nc3N3CCC[C@]4(C3)NC(=O)NC4=O)C2)c2c(CC)c(F)ccc2c1` [Example 51, 4-(4-((R)-2,4-dioxo-1,3,7-triazaspiro[4.5]decan-7-yl)-2-(((2R,7aS)-2-fluorotetrahydro-1H-pyrrolizin-7a(5H)-yl)methoxy)-5,8-dihydropyrido[3,4-d]pyrimidin-7(6H)-yl)-5-ethyl-6-fluoronaphthalen-2-yl decanoate]: the results for the half-life at 2 μM in data set [1] and in data set [2] were 0.0667 h and 3.92 h, respectively.
On to `CCc1c(F)ccc2cc(OCOC(=O)N(C)C)cc(N3CCc4c(nc(OC[C@@]56CCCN5C[C@H](F)C6)nc4N4CCC[C@]5(C4)NC(=O)NC5=O)C3)c12` [Example 52, ((4-(4-((R)-2,4-dioxo-1,3,7-triazaspiro[4.5]decan-7-yl)-2-(((2R,7aS)-2-fluorotetrahydro-1H-pyrrolizin-7a(5H)-yl)methoxy)-5,8-dihydropyrido[3,4-d]pyrimidin-7(6H)-yl)-5-ethyl-6-fluoronaphthalen-2-yl)oxy)methyl dimethylcarbamate], for which the half-life at 2 μM in data set [1] and in data set [2] was more than 4.82 h in each case.
As for `CCc1c(F)ccc2cc(OC(=O)N3CCCCCC3)cc(N3CCc4c(nc(OC[C@@]56CCCN5C[C@H](F)C6)nc4N4CCC[C@]5(C4)NC(=O)NC5=O)C3)c12` [Example 53, 4-(4-((R)-2,4-dioxo-1,3,7-triazaspiro[4.5]decan-7-yl)-2-(((2R,7aS)-2-fluorotetrahydro-1H-pyrrolizin-7a(5H)-yl)methoxy)-5,8-dihydropyrido[3,4-d]pyrimidin-7(6H)-yl)-5-ethyl-6-fluoronaphthalen-2-yl azepane-1-carboxylate], the half-life at 2 μM in data set [1] and in data set [2] was more than 4.82 h in each case.
Take `CCc1c(F)ccc2cc(OC(=O)N3CCCCCCC3)cc(N3CCc4c(nc(OC[C@@]56CCCN5C[C@H](F)C6)nc4N4CCC[C@]5(C4)NC(=O)NC5=O)C3)c12` [Example 54, 4-(4-((R)-2,4-dioxo-1,3,7-triazaspiro[4.5]decan-7-yl)-2-(((2R,7aS)-2-fluorotetrahydro-1H-pyrrolizin-7a(5H)-yl)methoxy)-5,8-dihydropyrido[3,4-d]pyrimidin-7(6H)-yl)-5-ethyl-6-fluoronaphthalen-2-yl azocane-1-carboxylate]: the half-life at 2 μM in data set [1] and in data set [2] was more than 4.82 h throughout.
As for `CCc1c(F)ccc2cc(OC(=O)N3CCCC[C@@H]3C)cc(N3CCc4c(nc(OC[C@@]56CCCN5C[C@H](F)C6)nc4N4CCC[C@]5(C4)NC(=O)NC5=O)C3)c12` [Example 55, 4-(4-((R)-2,4-dioxo-1,3,7-triazaspiro[4.5]decan-7-yl)-2-(((2R,7aS)-2-fluorotetrahydro-1H-pyrrolizin-7a(5H)-yl)methoxy)-5,8-dihydropyrido[3,4-d]pyrimidin-7(6H)-yl)-5-ethyl-6-fluoronaphthalen-2-yl(S)-2-methylpiperidine-1-carboxylate], the half-life at 2 μM in data set [1] and in data set [2] was more than 4.82 h each time.
`CCc1c(F)ccc2cc(OC(=O)N3CCC(C)CC3)cc(N3CCc4c(nc(OC[C@@]56CCCN5C[C@H](F)C6)nc4N4CCC[C@]5(C4)NC(=O)NC5=O)C3)c12` [Example 56, 4-(4-((R)-2,4-dioxo-1,3,7-triazaspiro[4.5]decan-7-yl)-2-(((2R,7aS)-2-fluorotetrahydro-1H-pyrrolizin-7a(5H)-yl)methoxy)-5,8-dihydropyrido[3,4-d]pyrimidin-7(6H)-yl)-5-ethyl-6-fluoronaphthalen-2-yl 4-methylpiperidine-1-carboxylate]: the half-life at 2 μM in data set [1] and in data set [2] was more than 4.82 h in each case.
In the case of `CCc1c(F)ccc2cc(OC(=O)N3CCCC[C@H]3C)cc(N3CCc4c(nc(OC[C@@]56CCCN5C[C@H](F)C6)nc4N4CCC[C@]5(C4)NC(=O)NC5=O)C3)c12` [Example 57, 4-(4-((R)-2,4-dioxo-1,3,7-triazaspiro[4.5]decan-7-yl)-2-(((2R,7aS)-2-fluorotetrahydro-1H-pyrrolizin-7a(5H)-yl)methoxy)-5,8-dihydropyrido[3,4-d]pyrimidin-7(6H)-yl)-5-ethyl-6-fluoronaphthalen-2-yl (R)-2-methylpiperidine-1-carboxylate], the half-life at 2 μM in data set [1] and in data set [2] was more than 4.82 h each time.
As to `CCc1c(F)ccc2cc(OC(=O)N3CCC[C@@H](C)C3)cc(N3CCc4c(nc(OC[C@@]56CCCN5C[C@H](F)C6)nc4N4CCC[C@]5(C4)NC(=O)NC5=O)C3)c12` [Example 58, 4-(4-((R)-2,4-dioxo-1,3,7-triazaspiro[4.5]decan-7-yl)-2-(((2R,7aS)-2-fluorotetrahydro-1H-pyrrolizin-7a(5H)-yl)methoxy)-5,8-dihydropyrido[3,4-d]pyrimidin-7(6H)-yl)-5-ethyl-6-fluoronaphthalen-2-yl (R)-3-methylpiperidine-1-carboxylate], the half-life at 2 μM in data set [1] and in data set [2] was more than 4.82 h throughout.

The values are drawn from patent publication US20250376483A1, “PRODRUGS OF PAN-KRAS INHIBITORS” (Mirati Therapeutics, Inc., priority 2022, published 2025).
